Results from patent US20240002416A1 (Rheinische-Friedrich-Wilhelms-Universität Bonn, priority 2020, published 2024).

Assays:
Format in all cases: cell-based
MRGPRX4-83S [1] = target: T1, MRGPRX4-83S (Homo sapiens, UniProt Q96LA9, L83S); assay: Calcium assay (human glioblastoma LN229 cells expressing the MRGPRX4-83S); parameters: LN229 glioblastoma cells natively expressing the MRGPRX4-83S; endogenous in cells; host or cells: LN229 human glioblastoma cells; conditions: for EC50: calcium mobilization, LN229 cells, MRGPRX4-83S, read-out: EC50 ± SEM; for Emax: LN-229, efficacy based on 30 μM H-1 (set as 100%), read-out: Emax
Procedure: (§1) For β-arrestin recruitment assays, recombinant Chinese hamster ovary (CHO) cells expressing the human MRGPRX4 were used (DiscoverX/Eurofins) which allowed to measure β-galactosidase complementation upon β-arrestin recruitment. For calcium mobilization assays, recombinant astrocytes expressing MRGPX4-83L, or LN229 glioblastoma cells natively expressing the MRGPRX4-83S, were used.
(§2) The assays were performed as previously described for other rhodopsin-like GPCRs (Müller, C.E.; 8-Benzamidochromen-4-one-2-carboxylic acids: potent and selective agonists for the orphan G protein-coupled receptor GPR35. J. Med. Chem. 2013, 56:5182-97; Müller, C.E. Molecular Recognition of Agonists and Antagonists by the Nucleotide-Activated G Protein-Coupled P2Y2 Receptor. J. Med. Chem. 2017, 60:8425-8440).

human MRGPRX4-83L [2] = target: T2, human MRGPRX4-83L (Homo sapiens, UniProt Q96LA9); assay: β-arrestin assay (CHO β-arrestin ARMS1-ProLink 2 human MRGPRX4 83L); conditions: for EC50: β-arrestin recruitment, CHO cells, MRGPRX4-83L, read-out: EC50 ± SEM; for Emax: read-out: Emax; for IC50: inhibition of the effect of 2.6 μM B-16
T2 construct: host or cells: CHO β-arrestin cells
Procedure: as §1, §2

human MRGPRX4-83L [3] = target: T2, human MRGPRX4-83L; assay: Calcium assay (human MRGPRX4 83L), recombinant astrocytes; conditions: for EC50: calcium mobilization, MRGPRX4-83L, read-out: EC50 ± SEM; for Emax: read-out: Emax
Procedure: as §1, §2

MRGPRX4-83S [4] = target: T1, MRGPRX4-83S; assay: β-arrestin assay (CHO β-arrestin human MRGPRX4-83S); parameters: host or cells: CHO β-arrestin cells; conditions: for EC50: β-arrestin recruitment, CHO cells, MRGPRX4-83S, read-out: EC50 ± SEM; for Emax: efficacy based on 100 nM B-16 (set as 100%), read-out: Emax
Procedure: as §1, §2

[5] = Table 1, efficacy based on maximal effect of 100 nM B-16 (set as 100%)
[6] = Table 1, means of 3-4 experiments
[7] = Table 1, efficacy based on maximal effect of 1 μM B-16 (set as 100%)

T1 sequence (Q96LA9 whole entry L83S): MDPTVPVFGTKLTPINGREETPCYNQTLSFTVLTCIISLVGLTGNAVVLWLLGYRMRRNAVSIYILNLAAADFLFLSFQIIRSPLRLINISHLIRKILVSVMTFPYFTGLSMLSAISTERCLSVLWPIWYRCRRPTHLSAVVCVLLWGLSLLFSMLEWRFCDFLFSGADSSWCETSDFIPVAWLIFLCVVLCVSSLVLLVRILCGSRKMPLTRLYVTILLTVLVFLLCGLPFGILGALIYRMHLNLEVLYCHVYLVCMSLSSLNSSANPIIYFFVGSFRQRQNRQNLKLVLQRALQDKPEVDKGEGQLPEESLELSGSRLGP
T2 sequence (Q96LA9 whole entry): as the sequence (Q96LA9 whole entry L83S) above, with S83L counted along it

SMILES | EC50 (human MRGPRX4-83L [2]; [6]) [µM] | EC50 (human MRGPRX4-83L [3]; Table 1) [µM] | IC50 (human MRGPRX4-83L [2]; Table 1) [µM] | IC50 (human MRGPRX4-83L [3]) [µM] | EC50 (MRGPRX4-83S [4]; Table 2) [nM] | EC50 (MRGPRX4-83S [1]; Table 2) [µM] | Emax (MRGPRX4-83S [4]; Table 2) [%] | further results
C#CCn1c(=O)c2c(nc(Cc3ccc4ccccc4c3)n2CC)n(CCCCP(=O)(O)O)c1=O [B-58] |  |  |  |  |  |  |  | IC50 (MRGPRX4-83S [1]): 0.0317 ± 0.0191 µM; EC50 (MRGPRX4-83S [1]; Table 3): > 10 µM; EC50 (human MRGPRX4-83L [2]; Table 4): > 10 µM; EC50 (human MRGPRX4-83L [3]; Table 4): > 10 µM; EC50 (MRGPRX4-83S [4]; Table 3): > 100000 nM
C#CCn1c(=O)c2c(nc(CCc3ccccc3Cl)n2C)n(CCCCP(=O)(O)O)c1=O [B-17, (4-(8-(2-Chlorophenethyl)-7-methyl-2,6-dioxo-1-(prop-2-yn-1-yl)-1,2,6,7-tetrahydro-3H-purin-3-yl)butyl)phosphonic acid] | 0.169 ± 0.06 | 0.00223 ± 0.00013 |  |  |  |  |  | Emax (human MRGPRX4-83L [2]; [5]): 114%; Emax (human MRGPRX4-83L [3]; [7]): 109%
C#CCn1c(=O)c2c(nc(CCc3c(C)cccc3C)n2CC)n(CCCCP(=O)(O)O)c1=O [B-33, (4-(8-(2,6-Dimethylphenethyl)-7-ethyl-2,6-dioxo-1-(prop-2-yn-1-yl)-1,2,6,7-tetrahydro-3H-purin-3-yl)butyl)phosphonic acid] |  |  |  |  |  |  |  | Emax (MRGPRX4-83S [1]; Table 3): 113%; EC50 (MRGPRX4-83S [1]; Table 3): 0.000543 ± 0.000186 µM; Emax (MRGPRX4-83S [4]; Table 3): 113%; EC50 (MRGPRX4-83S [4]; Table 3): 0.0487 ± 0.0201 nM
C#CCn1c(=O)c2[nH]c(CCc3ccccc3Br)nc2n(CCCCS(=O)(=O)O)c1=O [E-1, 4-(8-(2-Bromophenethyl)-2,6-dioxo-1-(prop-2-yn-1-yl)-1,2,6,7-tetrahydro-3H-purin-3-yl)butane-1-sulfonic acid] | > 10 | > 10 | > 10 | > 10 | > 10000 |  |  | 
C#CCn1c(=O)c2[nH]c(CCc3ccccc3)nc2n(CCCCP(=O)(O)O)c1=O [B-1, (4-(2,6-Dioxo-8-phenethyl-1-(prop-2-yn-1-yl)-1,2,6,7-tetrahydro-3H-purin-3-yl)butyl)phosphonic acid] | > 10 | 3.25 ± 0.61 | > 10 |  | 399 ± 115 | 0.134 ± 0.017 | 84 | Emax (MRGPRX4-83S [1]; Table 2): 92%; Emax (human MRGPRX4-83L [3]; [7]): 110%
COc1cccc(CCc2nc3c([nH]2)c(=O)n(CC2CCC2)c(=O)n3CCCCP(=O)(O)O)c1 [B-13, (4-(1-(Cyclobutylmethyl)-8-(3-methoxyphenethyl)-2,6-dioxo-1,2,6,7-tetrahydro-3H-purin-3-yl)butyl)phosphonic acid] | 48.3 ± 14.1 | 1.6 ± 0.46 |  |  | 68.9 ± 17 | 0.0599 ± 0.0107 | 93 | Emax (MRGPRX4-83S [1]; Table 2): 91%; Emax (human MRGPRX4-83L [2]; [5]): 96%; Emax (human MRGPRX4-83L [3]; [7]): 94%
C#CCn1c(=O)c2c(nc(CCc3ccccc3Br)n2C)n(CCCCP(=O)(O)O)c1=O [B-18, (4-(8-(2-Bromophenethyl)-7-methyl-2,6-dioxo-1-(prop-2-yn-1-yl)-1,2,6,7-tetrahydro-3H-purin-3-yl)butyl)phosphonic acid] | 0.0935 ± 0.0054 | 0.00635 ± 0.00167 |  |  | 0.296 ± 0.033 | 0.000501 ± 7.6e-05 | 128 | Emax (MRGPRX4-83S [1]; Table 2): 108%; Emax (human MRGPRX4-83L [2]; [5]): 132%; Emax (human MRGPRX4-83L [3]; [7]): 112%
C#CCn1c(=O)c2c(nc(CCc3cccc(C(F)(F)F)c3)n2C)n(CCCCP(=O)(O)O)c1=O [B-16, (4-(7-Methyl-2,6-dioxo-1-(prop-2-yn-1-yl)-8-(3-(trifluoromethyl)phenethyl)-1,2,6,7-tetrahydro-3H-purin-3-yl)butyl)phosphonic acid] | 0.37 ± 0.05 | 0.0324 ± 0.0056 |  |  | 2.28 ± 0.16 | 0.00317 ± 0.0006 | 100 | Emax (MRGPRX4-83S [1]; Table 2): 137%; Emax at 0.1 µM (human MRGPRX4-83L [2]; [5]): 100%; Emax at 1 µM (human MRGPRX4-83L [3]; [7]): 100%
CCCn1c(=O)c2[nH]c(-c3ccccc3)nc2n(CCCCP(=O)(O)O)c1=O [J-3, (4-(2,6-Dioxo-8-phenyl-1-propyl-1,2,6,7-tetrahydro-3H-purin-3-yl)butyl)phosphonic acid] | > 10 | > 10 | > 10 | > 10 | > 10000 | > 10 |  | IC50 (MRGPRX4-83S [4]): > 10 µM
C#CCn1c(=O)c2[nH]c(/C=C/c3cccc(OC)c3)nc2n(CCCCP(=O)(O)O)c1=O [J-1, (E)-(4-(8-(3-Methoxystyryl)-2,6-dioxo-1-(prop-2-yn-1-yl)-1,2,6,7-tetrahydro-3H-purin-3-yl)butyl)phosphonic acid] | > 10 | > 10 |  |  | 200 ± 59 | 0.0116 ± 0.0013 | 65 | 
CCCn1c(=O)c2[nH]c(C3CCCC3)nc2n(CCCCP(=O)(O)O)c1=O [J-2, (4-(8-Cyclopentyl-2,6-dioxo-1-propyl-1,2,6,7-tetrahydro-3H-purin-3-yl)butyl)phosphonic acid] | > 10 | > 50 | > 10 | > 50 | 6360 ± 1630 | > 10 | 76 | 
C#CCn1c(=O)c2[nH]c(CCc3cccc(OC)c3)nc2n(CCCCS(=O)(=O)O)c1=O [E-3, 4-(8-(3-Methoxyphenethyl)-2,6-dioxo-1-(prop-2-yn-1-yl)-1,2,6,7-tetrahydro-3H-purin-3-yl)butane-1-sulfonic acid] | > 10 | > 10 | > 10 | > 10 | > 10000 |  |  | 
C#CCn1c(=O)c2[nH]c(CCc3cccc(OC)c3)nc2n(CCCCP(=O)(OCC)OCC)c1=O [C-6, Diethyl (4-(8-(3-methoxyphenethyl)-2,6-dioxo-1-(prop-2-yn-1-yl)-1,2,6,7-tetrahydro-3H-purin-3-yl)butyl)phosphonate] | > 10 | > 10 | > 10 | > 10 | > 10000 |  |  | 
CCOP(=O)(CCCCn1c(=O)n(CC)c(=O)c2[nH]c(COc3ccccc3)nc21)OCC [C-10, Diethyl (4-(1-ethyl-2,6-dioxo-8-(phenoxymethyl)-1,2,6,7-tetrahydro-3H-purin-3-yl)butyl)phosphonate] | > 10 | > 10 | > 10 | > 10 | > 10000 |  |  | 
C#CCn1c(=O)c2[nH]c(CCc3ccc(OC)c(OC)c3)nc2n(CCCCP(=O)(OCC)OCC)c1=O [C-8, Diethyl (4-(8-(3,4-dimethoxyphenethyl)-2,6-dioxo-1-(prop-2-yn-1-yl)-1,2,6,7-tetrahydro-3H-purin-3-yl)butyl)phosphonate] | > 10 | > 10 | > 10 | > 10 | > 10000 |  |  | 
C#CCn1c(=O)c2c(nc(-c3cccc(OC)c3)n2C)n(CCCOP(=O)(O)O)c1=O [A-1, 3-(8-(3-Methoxyphenyl)-7-methyl-2,6-dioxo-1-(prop-2-yn-1-yl)-1,2,6,7-tetrahydro-3H-purin-3-yl)propyl dihydrogen phosphate, reference compound] | > 10 | > 10 | > 10 | > 10 |  | > 10 |  | 
